From BigSolDB 2.1

Conditions: in n-octanol

## CCn1cc(C(=O)O)c(=O)c2cnc(N3CCNCC3)nc21
293.15 K
  solubility (mole fraction): 9.14e-07
298.15 K
  solubility (mole fraction): 1.2e-06
303.15 K
  solubility (mole fraction): 1.57e-06
308.15 K
  solubility (mole fraction): 2.03e-06
313.15 K
  solubility (mole fraction): 2.6e-06
318.15 K
  solubility (mole fraction): 3.25e-06
323.15 K
  solubility (mole fraction): 4.05e-06
328.15 K
  solubility (mole fraction): 4.97e-06
333.15 K
  solubility (mole fraction): 6.02e-06

## CCn1cc(C(=O)O)c(=O)c2cc(F)c(N3CCNCC3)cc21
293.15 K
  solubility (mole fraction): 5.17e-05
298.15 K
  solubility (mole fraction): 6.62e-05
303.15 K
  solubility (mole fraction): 8.54e-05
308.15 K
  solubility (mole fraction): 0.000108
313.15 K
  solubility (mole fraction): 0.00014
318.15 K
  solubility (mole fraction): 0.000177
323.15 K
  solubility (mole fraction): 0.000224
328.15 K
  solubility (mole fraction): 0.000284
333.15 K
  solubility (mole fraction): 0.000352

## CCn1cc(C(=O)O)c(=O)c2cc(F)c(N3CCNC(C)C3)c(F)c21 (configuration not stated)
293.15 K
  solubility (mole fraction): 2.17e-06
298.15 K
  solubility (mole fraction): 2.76e-06
303.15 K
  solubility (mole fraction): 3.55e-06
308.15 K
  solubility (mole fraction): 4.58e-06
313.15 K
  solubility (mole fraction): 5.88e-06
318.15 K
  solubility (mole fraction): 7.63e-06
323.15 K
  solubility (mole fraction): 9.91e-06
328.15 K
  solubility (mole fraction): 1.3e-05
333.15 K
  solubility (mole fraction): 1.68e-05
